Molecular target: T1, HEK-Blue-hTLR7 cells (Homo sapiens, UniProt Q9NYK1)
T1 construct: expressed in transfected cells; host or cells: HEK-Blue-hTLR7 cells (HEK293-derived reporter line)
T1 sequence (Q9NYK1 27-1049): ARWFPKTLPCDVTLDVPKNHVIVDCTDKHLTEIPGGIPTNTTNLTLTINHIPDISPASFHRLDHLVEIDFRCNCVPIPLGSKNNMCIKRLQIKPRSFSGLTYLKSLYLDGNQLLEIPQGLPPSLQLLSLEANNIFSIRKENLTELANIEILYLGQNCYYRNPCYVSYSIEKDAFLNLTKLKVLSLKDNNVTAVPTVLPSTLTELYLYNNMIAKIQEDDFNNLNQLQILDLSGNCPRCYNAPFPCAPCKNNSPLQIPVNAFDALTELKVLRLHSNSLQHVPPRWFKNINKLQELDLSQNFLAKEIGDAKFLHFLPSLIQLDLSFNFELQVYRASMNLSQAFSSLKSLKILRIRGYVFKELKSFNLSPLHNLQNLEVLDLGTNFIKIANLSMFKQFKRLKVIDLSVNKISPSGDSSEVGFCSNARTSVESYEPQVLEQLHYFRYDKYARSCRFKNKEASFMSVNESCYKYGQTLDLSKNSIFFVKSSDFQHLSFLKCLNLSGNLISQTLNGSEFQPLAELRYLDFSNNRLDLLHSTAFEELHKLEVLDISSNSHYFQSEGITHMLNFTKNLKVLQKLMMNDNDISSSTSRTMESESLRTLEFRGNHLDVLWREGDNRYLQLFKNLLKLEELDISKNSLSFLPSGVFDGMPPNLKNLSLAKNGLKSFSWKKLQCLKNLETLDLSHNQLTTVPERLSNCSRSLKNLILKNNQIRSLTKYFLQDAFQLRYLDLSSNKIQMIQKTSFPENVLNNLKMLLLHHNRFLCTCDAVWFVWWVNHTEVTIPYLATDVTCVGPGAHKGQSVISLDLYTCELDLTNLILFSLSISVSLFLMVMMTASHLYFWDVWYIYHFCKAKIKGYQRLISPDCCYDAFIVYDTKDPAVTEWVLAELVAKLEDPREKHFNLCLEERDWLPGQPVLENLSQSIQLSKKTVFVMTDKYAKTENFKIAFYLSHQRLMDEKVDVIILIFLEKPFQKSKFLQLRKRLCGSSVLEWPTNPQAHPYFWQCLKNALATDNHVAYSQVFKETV
Assay: HEK-Blue-hTLR7 cell inhibition assay
Assay type: cell-based
Conditions: R848 0.8 µM, 16 h, OD 620 nm, read-out: TLR7 IC50
Procedure: HEK-Blue-hTLR7/8/9 cell inhibition assay
1. HEK-Blue-hTLR7/8 cells (1 × 10^4 cells/well) and HEK-Blue-hTLR9 cells (1.5 × 10^4 cells/well) were seeded in a 384-well cell culture plate, with a volume of 30 µL per well. The plate was incubated at 37°C in a 5% CO2 incubator for 4 h. 2. The compound was prepared with DMSO and diluted in DMEM medium to 10 concentrations (1:3 dilution), with final concentrations of 10000, 3333.3, 1111.1, 370.4, 123.5, 41.2, 13.7, 4.6, 1.5, and 0.5 nM; R848 was prepared with DMSO and diluted in DMEM medium, with final concentrations of 0.8 µM (HEK-Blue-hTLR7) and 3 µM (HEK-Blue-hTLR8); ODN2006 was prepared with endotoxin-free water and diluted in DMEM medium, with a final concentration of 1 µM. 3. Cells treated with DMSO were used as the blank control group, while cells treated solely with Resiquimod (R848) were used as the positive control group for HEK-Blue-hTLR7/8, and cells treated solely with ODN2006 were used as the positive control group for HEK-Blue-hTLR9. Cells treated with the test compound together with R848 or ODN2006 were used as the test group. Two parallel wells were set for each group and were placed at 37°C in a 5% CO2 incubator for incubation. 4. After being incubated for 4 h, the 384-well plate of HEK-Blue-hTLR7/8 was taken out from the incubator, and R848 alone or both R848 and the diluted compound were separately added into each well. The plate was placed at 37°C in a 5% CO2 incubator for incubation for 16 h; the 384-well plate of HEK-Blue-hTLR9 was taken out from the incubator, and ODN2006 alone or both ODN2006 and the diluted compound were added separately to each well. The plate was incubated at 37°C in a 5% CO2 incubator for 16 h. 5. After being incubated for 16 h, the 384-well plate was removed from the incubator and centrifuged at 1000 rpm for 1 minute. The optical density value of each well at 620 nm was measured using a multifunctional microplate reader. 6. The cell inhibition rate was calculated as (1-(OD620 test group-OD620 blank group)/(OD620 positive group-OD620 blank group))×100%, and the half maximal inhibitory concentration (IC50) was calculated through curve fitting. Table 1: Activity of the compounds of the present disclosure in HEK-Blue-hTLR7/8/9 cellular assays

| IC50 [nM] | SMILES |
| --- | --- |
| < 100 | CN1CCN(c2nnc([C@]34CN(c5ccc(C#N)c6ncccc56)C[C@@]3(C(F)(F)F)C4)o2)CC1 [Compound 1, 5-((1S,5R)-1-(5-(4-methylpiperazin-1-yl)-1,3,4-oxadiazol-2-yl)-5-(trifluoromethyl)-3-azabicyclo[3.1.0]hexan-3-yl)quinoline-8-carbonitrile] |
| > 1000 | Cc1cc(N2CC3(c4nnc(C5CCN(C)CC5)o4)C[C@]3(C(F)(F)F)C2)c2cnn(C)c2n1 (stereo partly drawn) [Compound 2, 2-((5R)-3-(1,6-dimethyl-1H-pyrazolo[3,4-b]pyridin-4-yl)-5-(trifluoromethyl)-3-azabicyclo[3.1.0]hexan-1-yl)-5-(1-methylpiperidin-4-yl)-1,3,4-oxadiazole] |
| < 100 | FC(F)(F)c1ccc(N2C[C@]3(c4nnc(C5(F)CCNCC5)o4)C[C@]3(C(F)(F)F)C2)c2cccnc12 [Compound 3, 2-(4-fluoropiperidin-4-yl)-5-((1S,5R)-5-(trifluoromethyl)-3-(8-(trifluoromethyl)quinolin-5-yl)-3-azabicyclo[3.1.0]hexan-1-yl)-1,3,4-oxadiazole] |
| < 100 | CN1CC(c2nnc([C@]34CN(c5ccc(C(F)(F)F)c6ncccc56)C[C@@]3(C(F)(F)F)C4)o2)C1 [Compound 4, 2-(1-methylazetidin-3-yl)-5-((1S,5R)-5-(trifluoromethyl)-3-(8-(trifluoromethyl)quinolin-5-yl)-3-azabicyclo[3.1.0]hexan-1-yl)-1,3,4-oxadiazole] |
| < 1000 | CN1CCC(c2nnc([C@]34CN(c5ccc(C#N)c6ncccc56)C[C@@]3(C(F)(F)F)C4)n2C)CC1 [Compound 5, 5-((1S,5R)-1-(4-methyl-5-(1-methylpiperidin-4-yl)-4H-1,2,4-triazol-3-yl)-5-(trifluoromethyl)-3-azabicyclo[3.1.0]hexan-3-yl)quinoline-8-carbonitrile] |
| < 100 | CN1CCC(Nc2nnc([C@]34CN(c5ccc(C#N)c6ncccc56)C[C@@]3(C(F)(F)F)C4)o2)CC1 [Compound 6, 5-((1S,5R)-1-(5-((1-methylpiperidin-4-yl)amino)-1,3,4-oxadiazol-2-yl)-5-(trifluoromethyl)-3-azabicyclo[3.1.0]hexan-3-yl)quinoline-8-carbonitrile] |
| < 100 | N#Cc1ccc(N2C[C@]3(c4nnc(N)o4)C[C@]3(C(F)(F)F)C2)c2cccnc12 [Compound 7, 5-((1S,5R)-1-(5-amino-1,3,4-oxadiazol-2-yl)-5-(trifluoromethyl)-3-azabicyclo[3.1.0]hexan-3-yl)quinoline-8-carbonitrile] |
| < 100 | CN1CCC(c2nnc([C@]34CN(c5ccc(C#N)c6ncccc56)C[C@@]3(C(F)(F)F)C4)[nH]2)CC1 [Compound 9, 5-((1S,5R)-1-(5-(1-methylpiperidin-4-yl)-4H-1,2,4-triazol-3-yl)-5-(trifluoromethyl)-3-azabicyclo[3.1.0]hexan-3-yl)quinoline-8-carbonitrile] |
| < 100 | N#Cc1ccc(N2C[C@]3(c4nnc(C5CCOCC5)o4)C[C@]3(C(F)(F)F)C2)c2cccnc12 [Compound 12, 5-((1S,5R)-1-(5-(tetrahydro-2H-pyran-4-yl)-1,3,4-oxadiazol-2-yl)-5-(trifluoromethyl)-3-azabicyclo[3.1.0]hexan-3-yl)quinoline-8-carbonitrile] |
| < 100 | CN1CC2(CCC(c3nnc([C@]45CN(c6ccc(C#N)c7ncccc67)C[C@@]4(C(F)(F)F)C5)o3)CC2)C1 [Compound 13, 5-((1S,5R)-1-(5-(2-methyl-2-azaspiro[3.5]nonan-7-yl)-1,3,4-oxadiazol-2-yl)-5-(trifluoromethyl)-3-azabicyclo[3.1.0]hexan-3-yl)quinoline-8-carbonitrile] |
| < 100 | CN1CC2CC1CC2c1nnc([C@]23CN(c4ccc(C#N)c5ncccc45)C[C@@]2(C(F)(F)F)C3)o1 (stereo partly drawn) [Compound 14, 5-((1S,5R)-1-(5-(2-methyl-2-azabicyclo[2.2.1]heptan-5-yl)-1,3,4-oxadiazol-2-yl)-5-(trifluoromethyl)-3-azabicyclo[3.1.0]hexan-3-yl)quinoline-8-carbonitrile] |
| < 100 | CN1CCC(Oc2nnc([C@]34CN(c5ccc(C#N)c6ncccc56)C[C@@]3(C(F)(F)F)C4)o2)CC1 [Compound 15, 5-((1S,5R)-1-(5-((1-methylpiperidin-4-yl)oxy)-1,3,4-oxadiazol-2-yl)-5-(trifluoromethyl)-3-azabicyclo[3.1.0]hexan-3-yl)quinoline-8-carbonitrile] |
| < 100 | N#Cc1ccc(N2C[C@]3(c4nnc(C5CCN(CC(N)=O)CC5)o4)C[C@]3(C(F)(F)F)C2)c2cccnc12 [Compound 17, 2-(4-(5-((1S,5R)-3-(8-cyanoquinolin-5-yl)-5-(trifluoromethyl)-3-azabicyclo[3.1.0]hexan-1-yl)-1,3,4-oxadiazol-2-yl)piperidin-1-yl)acetamide] |
| < 100 | CN1CC2(CC(c3nnc([C@]45CN(c6ccc(C#N)c7ncccc67)C[C@@]4(C(F)(F)F)C5)o3)C2)C1 [Compound 19, 5-((1S,5R)-1-(5-(2-methyl-2-azaspiro[3.3]heptan-6-yl)-1,3,4-oxadiazol-2-yl)-5-(trifluoromethyl)-3-azabicyclo[3.1.0]hexan-3-yl)quinoline-8-carbonitrile] |

| SMILES | IC50 [nM] |
| --- | --- |
| CN1CCC(C)(c2nnc([C@]34CN(c5ccc(C#N)c6ncccc56)C[C@@]3(C(F)(F)F)C4)o2)CC1 [Compound 8, 5-((1S,5R)-1-(5-(1,4-dimethylpiperidin-4-yl)-1,3,4-oxadiazol-2-yl)-5-(trifluoromethyl)-3-azabicyclo[3.1.0]hexan-3-yl)quinoline-8-carbonitrile] | < 100 |
| CN1[C@@H]2CC[C@H]1C[C@H](c1nnc([C@]34CN(c5ccc(C#N)c6ncccc56)C[C@@]3(C(F)(F)F)C4)o1)C2 [Compound 11, 5-((1S,5R)-1-(5-((1R,3S,5S)-8-methyl-8-azabicyclo[3.2.1]octan-3-yl)-1,3,4-oxadiazol-2-yl)-5-(trifluoromethyl)-3-azabicyclo[3.1.0]hexan-3-yl)quinoline-8-carbonitrile] | < 100 |
| N#Cc1ccc(N2C[C@]3(c4nnc(C5CC6(CNC6)C5)o4)C[C@]3(C(F)(F)F)C2)c2cccnc12 [Compound 18, 5-((1S,5R)-1-(5-(2-azaspiro[3.3]heptan-6-yl)-1,3,4-oxadiazol-2-yl)-5-(trifluoromethyl)-3-azabicyclo[3.1.0]hexan-3-yl)quinoline-8-carbonitrile] | < 100 |
| N#Cc1ccc(N2C[C@]3(c4nnc([C@H]5CC[C@H](N)CC5)o4)C[C@]3(C(F)(F)F)C2)c2cccnc12 [Compound 20, 5-((1S,5R)-1-(5-((1R,4S)-4-aminocyclohexyl)-1,3,4-oxadiazol-2-yl)-5-(trifluoromethyl)-3-azabicyclo[3.1.0]hexan-3-yl)quinoline-8-carbonitrile] | < 100 |

Source: patent publication EP4806891A1 (Kangbaida (Sichuan) Biotechnology Co., Ltd., priority 2023, dated 2025)
